In brackets after ≈: the same amount, converted by molar mass. Activity calls are given as the source filed them. No cut-off for these calls is given here.
Experiments:
Bacillus subtilis = test: Antibacterial activity against Bacillus subtilis 168 assessed as bacterial growth inhibition measured after 16 hrs by serial dilution method; format: functional; settings: subsp. subtilis str. 168
Staphylococcus aureus [1] = test: Antibacterial activity against methicillin-sensitive Staphylococcus aureus ATCC 25923 assessed as bacterial growth inhibition measured after 16 hrs by serial dilution method; format: functional
HCT-116 [2] = test: Cytotoxicity against human HCT-116 cells assessed as reduction in cell growth at 0.06 to 30 uM measured after 48 hrs by MTS assay; format: functional, cell-based; settings: dose 0.06-30 µM
Staphylococcus aureus [3] = test: Antibacterial activity against methicillin-resistant Staphylococcus aureus ATCC 43300 assessed as bacterial growth inhibition measured after 16 hrs by serial dilution method; format: functional
HCT-116 [4] = test: Cytotoxicity against human HCT-116 cells assessed as reduction in cell growth at 12.8 uM measured after 48 hrs by MTS assay; format: functional, cell-based

SMILES: O=C1C=C(c2cc(Br)c(O)c(Br)c2)C(O)(Cc2cc(Br)c(O)c(Br)c2)O1 (centres undefined)
- MIC (Bacillus subtilis): 32 µg/mL (≈ 52.1 µM)
- MIC (Staphylococcus aureus [1]): 32 µg/mL (≈ 52.1 µM)
- Activity (HCT-116 [2]): inactive
- MIC (Staphylococcus aureus [3]): 16 µg/mL (≈ 26.1 µM)

SMILES: O=C1C=C(c2cc(Br)c(O)c(Br)c2)/C(=C/c2cc(Br)c(O)c(Br)c2)O1 [RUBROLIDE A]
- MIC (Bacillus subtilis): 2 µg/mL (≈ 3.36 µM)
- MIC (Staphylococcus aureus [1]): 8 µg/mL (≈ 13.4 µM)
- Activity (HCT-116 [2]): inactive
- MIC (Staphylococcus aureus [3]): 2 µg/mL (≈ 3.36 µM)

SMILES: CN(C)[C@@H]1C(O)=C(C(N)=O)C(=O)[C@@]2(O)C(O)=C3C(=O)c4c(O)cccc4[C@@](C)(O)[C@H]3C[C@@H]12 [TETRACYCLINE]
- MIC (Bacillus subtilis): 2 µg/mL (≈ 4.5 µM)
- MIC (Staphylococcus aureus [1]): < 0.25 µg/mL
- MIC (Staphylococcus aureus [3]): < 0.25 µg/mL

SMILES: O=C1OC(O)(Cc2ccc(O)cc2)C(c2cc(Br)c(O)c(Br)c2)=C1Cl (centres undefined)
- MIC (Bacillus subtilis): 128 µg/mL (≈ 261 µM)
- MIC (Staphylococcus aureus [1]): 128 µg/mL (≈ 261 µM)
- Activity (HCT-116 [2]): inactive
- MIC (Staphylococcus aureus [3]): 128 µg/mL (≈ 261 µM)

SMILES: O=C1C=C(c2cc(Br)c(O)c(Br)c2)C(O)(Cc2ccc(O)c(Br)c2)O1 (centres undefined)
- MIC (Bacillus subtilis): > 128 µg/mL
- Activity (HCT-116 [4]): Active
- MIC (Staphylococcus aureus [1]): > 128 µg/mL
- MIC (Staphylococcus aureus [3]): > 128 µg/mL

— ChEMBL document CHEMBL4813942, “Hydrated Rubrolides from the New Zealand Tunicate Synoicum kuranui” (2021)
